Target: T1, NKCC1 (Homo sapiens, UniProt P55011)
T1 construct: endogenous in cells; host or cells: native HEK293 cells
T1 sequence (P55011 1-1212): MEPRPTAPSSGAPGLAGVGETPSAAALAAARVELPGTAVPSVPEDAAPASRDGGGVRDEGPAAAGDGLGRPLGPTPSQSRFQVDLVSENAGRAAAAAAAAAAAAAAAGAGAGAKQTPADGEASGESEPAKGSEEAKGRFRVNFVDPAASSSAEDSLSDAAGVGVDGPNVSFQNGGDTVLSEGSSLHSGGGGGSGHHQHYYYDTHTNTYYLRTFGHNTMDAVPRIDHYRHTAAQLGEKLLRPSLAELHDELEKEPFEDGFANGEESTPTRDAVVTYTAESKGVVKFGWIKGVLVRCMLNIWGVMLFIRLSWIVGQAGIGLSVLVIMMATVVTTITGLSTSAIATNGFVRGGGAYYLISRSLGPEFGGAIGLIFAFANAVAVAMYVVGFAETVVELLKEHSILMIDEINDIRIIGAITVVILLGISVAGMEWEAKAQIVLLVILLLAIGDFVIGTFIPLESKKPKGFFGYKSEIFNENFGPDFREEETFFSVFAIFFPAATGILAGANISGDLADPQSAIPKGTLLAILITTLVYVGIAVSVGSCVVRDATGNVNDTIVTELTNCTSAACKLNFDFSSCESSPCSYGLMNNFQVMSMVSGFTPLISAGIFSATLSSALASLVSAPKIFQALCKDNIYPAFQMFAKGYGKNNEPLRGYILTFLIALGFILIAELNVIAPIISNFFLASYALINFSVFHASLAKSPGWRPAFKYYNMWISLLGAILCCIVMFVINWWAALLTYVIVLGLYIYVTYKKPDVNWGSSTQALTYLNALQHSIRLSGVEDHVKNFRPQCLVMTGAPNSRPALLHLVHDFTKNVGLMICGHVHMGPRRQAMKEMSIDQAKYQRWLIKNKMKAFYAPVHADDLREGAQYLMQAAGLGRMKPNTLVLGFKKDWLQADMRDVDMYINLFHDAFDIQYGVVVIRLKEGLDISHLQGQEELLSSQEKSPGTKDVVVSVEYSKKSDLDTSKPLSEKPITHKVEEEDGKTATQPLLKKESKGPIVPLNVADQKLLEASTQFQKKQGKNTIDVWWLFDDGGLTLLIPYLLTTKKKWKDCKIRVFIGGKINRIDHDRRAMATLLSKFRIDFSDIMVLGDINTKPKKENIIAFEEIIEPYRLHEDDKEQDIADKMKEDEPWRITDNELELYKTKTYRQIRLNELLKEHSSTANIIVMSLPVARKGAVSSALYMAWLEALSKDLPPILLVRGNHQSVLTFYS
Assay: NKCC1-mediated K+ influx (83Rb tracer uptake) in native HEK293 cells, hypertonic saline, 100 μM ouabain
Format: cell-based
Conditions: HEK293, no drug = 1000, 20 μM bumetanide = 0; for inhibition at 2 µM: read-out: NKCC1 mediated flux inhibition at 2 μM (%); for inhibition at 20 µM: read-out: NKCC1 mediated flux inhibition at 20 μM (%)
Procedure, shortened: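 Native cells in slightly hypertonic saline with 100 μM ouabain; 15 min preincubation then 15 min 83Rb uptake (0.25 μCi/mL), scintillation counting normalized to protein. Compounds at 2 μM and 20 μM; flux scaled 1000 (no drug) to 0 (20 μM bumetanide), triplicate dishes.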

| inhibition at 2 µM | inhibition at 20 µM | Compound |
| --- | --- | --- |
| 30 to 50% | 10 to 30% | CCCCNc1cc(C(=O)OC)cc(S(=N)(=O)Nc2nccs2)c1Oc1ccccc1 (centres unmarked) [Compound 43, methyl 3-(butylamino)-4-phenoxy-5-[(thiazol-2-ylamino)sulfonimidoyl]benzoate] |
|  | 10 to 30% | CCCCNc1cc(C(=O)OC)cc(S(=N)(=O)Nc2ncccn2)c1Oc1ccccc1 (centres unmarked) [Compound 31, methyl 3-(butylamino)-4-phenoxy-5-[(pyrimidin-2-ylamino)sulfonimidoyl]benzoate] |
|  | 10 to 30% | CCCCNc1cc(C(=O)OC)cc(S(=N)(=O)NCC2CCOCC2)c1Oc1ccccc1 (centres unmarked) [Compound 13, methyl 3-(butylamino)-4-phenoxy-5-[(tetrahydropyran-4-ylmethylamino)sulfonimidoyl]benzoate] |
| 10 to 30% | 30 to 50% | CCCCNc1cc(C(=O)OC)cc(S(=N)(=O)N2Cc3ccccc3C2)c1Oc1ccccc1 (centres unmarked) [Compound 24, methyl 3-(butylamino)-5-(isoindolin-2-ylsulfonimidoyl)-4-phenoxy-benzoate] |
| 50 to 75% | ≥ 75% | CCCCNc1cc(C(=O)O)cc(S(=N)(=O)NCc2ccn(C)n2)c1Oc1ccccc1 (centres unmarked) [Compound 87, 3-(butylamino)-5-[[(1-methylpyrazol-3-yl)methylamino]sulfonimidoyl]-4-phenoxy-benzoic acid] |
| 30 to 50% | 30 to 50% | CCCCNc1cc(C(=O)OC)cc(S(=N)(=O)NCc2cncnc2)c1Oc1ccccc1 (centres unmarked) [Compound 15, methyl 3-(butylamino)-4-phenoxy-5-[(pyrimidin-5-ylmethylamino)sulfonimidoyl]benzoate] |
|  | 30 to 50% | CCCCNc1cc(C(=O)OC)cc(S(=N)(=O)Nc2cccc(OC(F)F)c2)c1Oc1ccccc1 (centres unmarked) [Compound 28, methyl 3-(butylamino)-5-[[3-(difluoromethoxy)anilino]sulfonimidoyl]-4-phenoxy-benzoate] |
|  | 10 to 30% | CCCCNc1cc(C(=O)OC)cc(S(=N)(=O)NCCc2cccnc2)c1Oc1ccccc1 (centres unmarked) [Compound 37, methyl 3-(butylamino)-4-phenoxy-5-[[2-(3-pyridyl)ethylamino]sulfonimidoyl]benzoate] |
| 30 to 50% |  | CCCCNc1cc(C(=O)NC2CC2)cc(S(=N)(=O)Nc2ccccc2)c1Oc1ccccc1 (centres unmarked) [Compound 106, 3-(anilinosulfonimidoyl)-5-(butylamino)-N-cyclopropyl-4-phenoxy-benzamide] |
| 10 to 30% | 10 to 30% | CCCCNc1cc(C(=O)OC)cc(S(=N)(=O)NCc2ccn(C)n2)c1Oc1ccccc1 (centres unmarked) [Compound 42, methyl 3-(butylamino)-5-[[(1-methylpyrazol-3-yl)methylamino]sulfonimidoyl]-4-phenoxy-benzoate] |
| 30 to 50% | ≥ 75% | CCCCNc1cc(C(=O)O)cc(S(=N)(=O)Nc2cncnc2)c1Oc1ccccc1 (centres unmarked) [Compound 80, 3-(butylamino)-4-phenoxy-5-[(pyrimidin-5-ylamino)sulfonimidoyl]benzoic acid] |
| 30 to 50% | 50 to 75% | CCCCNc1cc(C(=O)O)cc(S(=N)(=O)N(C)C)c1Oc1ccccc1 (centres unmarked) [Compound 52, 3-(butylamino)-5-(dimethylaminosulfonimidoyl)-4-phenoxy-benzoic acid] |
| 30 to 50% | 10 to 30% | CCCCNc1cc(C(=O)OC)cc(S(=N)(=O)N2CCC(c3ccccc3)CC2)c1Oc1ccccc1 (centres unmarked) [Compound 18, methyl 3-(butylamino)-4-phenoxy-5-[(4-phenyl-1-piperidyl)sulfonimidoyl]benzoate] |
| 10 to 30% | 50 to 75% | CCCCNc1cc(C(=O)O)cc(S(=N)(=O)Nc2ncccn2)c1Oc1ccccc1 (centres unmarked) [Compound 76, 3-(butylamino)-4-phenoxy-5-[(pyrimidin-2-ylamino)sulfonimidoyl]benzoic acid] |
| 50 to 75% | ≥ 75% | CCCCNc1cc(C(=O)O)cc(S(=N)(=O)Nc2cccc(OC(F)F)c2)c1Oc1ccccc1 (centres unmarked) [Compound 74, 3-(butylamino)-5-[[3-(difluoromethoxy)anilino]sulfonimidoyl]-4-phenoxy-benzoic acid] |
| 30 to 50% | 50 to 75% | CCCCNc1cc(C(=O)OC)cc(S(=N)(=O)NC2CN3CCC2CC3)c1Oc1ccccc1 (centres unmarked) [Compound 48, methyl 3-(butylamino)-4-phenoxy-5-[(quinuclidin-3-ylamino)sulfonimidoyl]benzoate] |
|  | 50 to 75% | CCCCNc1cc(C(=O)O)cc(S(=N)(=O)N(C)CC)c1Oc1ccccc1 (centres unmarked) [Compound 55, 3-(butylamino)-5-[[ethyl(methyl)amino]sulfonimidoyl]-4-phenoxy-benzoic acid] |
| 30 to 50% | 10 to 30% | CCCCNc1cc(C(=O)OC)cc(S(=N)(=O)Nc2ccncc2)c1Oc1ccccc1 (centres unmarked) [Compound 44, methyl 3-(butylamino)-4-phenoxy-5-[(4-pyridylamino)sulfonimidoyl]benzoate] |
| 50 to 75% | 10 to 30% | CCCCNc1cc(C(=O)NCC(F)(F)F)cc(S(=N)(=O)N2Cc3ccccc3C2)c1Oc1ccccc1 (centres unmarked) [Compound 115, 3-(butylamino)-5-(isoindolin-2-ylsulfonimidoyl)-4-phenoxy-N-(2,2,2-trifluoroethyl)benzamide] |
|  | 30 to 50% | CCCCNc1cc(C(=O)OC)cc(S(=N)(=O)NCCc2ccccc2)c1Oc1ccccc1 (centres unmarked) [Compound 34, methyl 3-(butylamino)-4-phenoxy-5-[(2-phenylethylamino)sulfonimidoyl]benzoate] |
|  | 30 to 50% | CCCCNc1cc(C(=O)O)cc(S(=O)(=NC)N(C)CC)c1Oc1ccccc1 (stereo not drawn) [Compound 100, 3-(butylamino)-5-[S-[ethyl(methyl)amino]-N-methyl-sulfonimidoyl]-4-phenoxybenzoic acid] |
| 30 to 50% | 30 to 50% | CCCCNc1cc(C(=O)OC)cc(S(=N)(=O)NCCCC)c1Oc1ccccc1 (centres unmarked) [Compound 46, methyl 3-(butylamino)-5-(butylaminosulfonimidoyl)-4-phenoxy-benzoate] |
|  | 30 to 50% | CCCCNc1cc(C(=O)OC)cc(S(=N)(=O)NC2CCN(C)CC2)c1Oc1ccccc1 (centres unmarked) [Compound 30, methyl 3-(butylamino)-5-[[(1-methyl-4-piperidyl)amino]sulfonimidoyl]-4-phenoxy-benzoate] |
| 10 to 30% | ≥ 75% | CCCCNc1cc(C(=O)O)cc(S(=N)(=O)NCC2CCCCC2)c1Oc1ccccc1 (centres unmarked) [Compound 62, 3-(butylamino)-5-[(cyclohexylmethylamino)sulfonimidoyl]-4-phenoxy-benzoic acid] |
| 10 to 30% | 50 to 75% | CCCCNc1cc(C(=O)OC)cc(S(=N)(=O)Nc2ccccc2)c1Oc1ccccc1 (centres unmarked) [Compound 7, methyl 3-(anilinosulfonimidoyl)-5-(butylamino)-4-phenoxy-benzoate] |
| 30 to 50% | 30 to 50% | CCCCNc1cc(C(=O)OC)cc(S(=N)(N)=O)c1Oc1ccccc1 (centres unmarked) [Compound 25, methyl 3-(aminosulfonimidoyl)-5-(butylamino)-4-phenoxy-benzoate] |
|  | 10 to 30% | CCCCNc1cc(C(=O)OC)cc(S(=N)(=O)Nc2ccccc2Cl)c1Oc1ccccc1 (centres unmarked) [Compound 26, methyl 3-(butylamino)-5-[(2-chloroanilino)sulfonimidoyl]-4-phenoxy-benzoate] |

From patent publication US20260374782A1, “NEW COMPOUNDS, PROCESSES FOR PREPARING THE SAME AND THEIR USE AS DRUGS” (B&A ONCOMEDICAL, priority 2022, published 2026)
